Source: ChEMBL document CHEMBL5214910, “Rational Design of Dipicolylamine-Containing Carbazole Amphiphiles Combined with Zn2+ as Potent Broad-Spectrum Antibacterial Agents with a Membrane-Disruptive Mechanism” (J Med Chem, 2021)
≈ marks a conversion by molar mass, not a printed value. Calls of active or inactive are those of the source. The calls are words filed in the database; no cut-off is given here.

Assays:
Lipopolysaccharide (LPS) [1] = experiment: Displacement of BODIPY-TR-cadaverin from Pseudomonas aeruginosa Lipopolysaccharide at 4 times of MIC incubated for 30 mins in the presence of 12.5 ug/ml Zn2+ by fluorescence based microplate reader analysis relative to control
Staphylococcus aureus [2] = experiment: Antibacterial activity against Staphylococcus aureus ATCC 29213 assessed as log reduction in bacterial count at 8 times of MIC incubated for 30 mins in the presence of 12.5 ug/ml Zn2+ by Muller hinton agar based time kill assay; type: functional; conditions: 0.5 h
Cell membrane [3] = experiment: Induction of cell membrane […] in Escherichia coli ATCC 25922 assessed as increase in fluorescence intensity at 2 times to 8 times of MIC measured for 1 hrs in the presence of 12.5 ug/ml Zn2+ by […] dye based assay; type: subcellular
Staphylococcus aureus [4] = experiment: Antibacterial activity against Staphylococcus aureus ATCC 29213 assessed as inhibition of bacterial growth incubated for 24 hrs in the presence of 12.5 ug/mL Zn2+ by Muller hinton broth based dilution assay; type: functional
Cell membrane [5] = experiment: Disruption of cell membrane integrity in Escherichia coli ATCC 25922 assessed as increase in fluorescence intensity at 2 times to 8 times of MIC measured for 1 hrs in the presence of 12.5 ug/ml Zn2+ by SYTOX green dye based assay; type: subcellular; conditions: DDE = dose-dependent effect
[6] = Ratio of MIC for antibacterial activity against Acinetobacter baumannii ATCC 17978 to MIC for antibacterial activity against Acinetobacter baumannii ATCC 17978 in the presence of Zn2+; type: functional
Staphylococcus aureus [7] = experiment: Antibacterial activity against Methicillin-resistant Staphylococcus aureus NCTC10442 assessed as inhibition of bacterial growth incubated for 24 hrs in the presence of […] ug/mL Zn2+ by Muller hinton broth based dilution assay; type: functional
Acinetobacter baumannii [8] = experiment: Antibacterial activity against Acinetobacter baumannii ATCC 17978 assessed as inhibition of bacterial growth by measuring salt resistance incubated for 24 hrs in the presence of 12.5 ug/ml Zn2+ and 3220 ug/ml Na+ by Muller hinton broth based dilution assay; type: functional
Staphylococcus aureus [9] = experiment: Antibacterial activity against Staphylococcus aureus ATCC 29213 assessed as inhibition of bacterial growth incubated for 24 hrs in the presence of […] ug/mL Zn2+ by Muller hinton broth based dilution assay; type: functional
Acinetobacter baumannii [10] = experiment: Antibacterial activity against Acinetobacter baumannii R2889 assessed as inhIbition of bacterial growth incubated for 24 hrs in the presence of 12.5 ug/mL Zn2+ by Muller hinton broth based dilution assay; type: functional
Staphylococcus aureus [11] = experiment: Antibacterial activity against Staphylococcus aureus ATCC 29213 assessed as inhibition of bacterial growth incubated for 24 hrs in the presence of 0.39 ug/mL Zn2+ by Muller hinton broth based dilution assay; type: functional
Acinetobacter baumannii [12] = experiment: Antibacterial activity against Acinetobacter baumannii ATCC 17978 assessed as inhIbition of bacterial growth incubated for 24 hrs by Muller hinton broth based dilution assay; type: functional
[13] = Cytotoxicity against mouse NCTC clone 929 cells assessed as reduction in cell survival at 16 times to 32 times of MIC incubated for 24 hrs in the presence of 12.5 ug/ml of Zn2+ by CCK8 assay relative to control; type: toxicity, cell-based; conditions: nctc clone 929, 24 h
Lipopolysaccharide (LPS) [14] = experiment: Displacement of BODIPY-TR-cadaverin from Pseudomonas aeruginosa Lipopolysaccharide at 8 times of MIC incubated for 30 mins in the presence of 12.5 ug/ml Zn2+ by fluorescence based microplate reader analysis relative to control
[15] = Hemolytic activity in rabbit RBC incubated for 1 hrs by fluorescence based microplate reader assay; type: toxicity, cell-based, Oryctolagus cuniculus, Erythrocyte; conditions: rabbit red blood cells (erythrocytes)
Lipopolysaccharide (LPS) [16] = experiment: Displacement of BODIPY-TR-cadaverin from Pseudomonas aeruginosa Lipopolysaccharide at 16 times of MIC incubated for 30 mins by fluorescence based microplate reader analysis relative to control
Pseudomonas aeruginosa [17] = experiment: Antibacterial activity Pseudomonas aeruginosa ATCC 9027 assessed as inhibition of bacterial growth incubated for 24 hrs in the presence of 50 ug/mL Zn2+ by Muller hinton broth based dilution assay; type: functional
Pseudomonas aeruginosa [18] = experiment: Antibacterial activity Pseudomonas aeruginosa ATCC 9027 assessed as inhibition of bacterial growth incubated for 24 hrs in the presence of 3.125 ug/mL Zn2+ by Muller hinton broth based dilution assay; type: functional
Escherichia coli [19] = experiment: Antibacterial activity against Escherichia coli ATCC 25922 assessed as log reduction in bacterial count at 4 times of MIC incubated for 1 hrs in the presence of 12.5 ug/ml Zn2+ by Muller hinton agar based time kill assay; type: functional
Staphylococcus aureus [20] = experiment: Antibacterial activity against Methicillin-resistant Staphylococcus aureus NCTC10442 assessed as inhibition of bacterial growth incubated for 24 hrs in the presence of 6.25 ug/mL Zn2+ by Muller hinton broth based dilution assay; type: functional
Lipopolysaccharide (LPS) [21] = experiment: Displacement of BODIPY-TR-cadaverin from Pseudomonas aeruginosa Lipopolysaccharide at 2 times of MIC incubated for 30 mins in the presence of 12.5 ug/ml Zn2+ by fluorescence based microplate reader analysis relative to control
Staphylococcus aureus [22] = experiment: Antibacterial activity against Methicillin-resistant Staphylococcus aureus NCTC10442 assessed as inhibition of bacterial growth by measuring salt resistance incubated for 24 hrs in the presence of 12.5 ug/ml Zn2+ and 24.3 ug/ml Mg2+ by Muller hinton broth based dilution assay; type: functional
Staphylococcus aureus [23] = experiment: Antibacterial activity against Methicillin-resistant Staphylococcus aureus NCTC10442 assessed as inhibition of bacterial growth by measuring salt resistance incubated for 24 hrs in the presence of 12.5 ug/ml Zn2+ and 175.5 ug/ml K+ by Muller hinton broth based dilution assay; type: functional
Lipopolysaccharide (LPS) [24] = experiment: Displacement of BODIPY-TR-cadaverin from Pseudomonas aeruginosa Lipopolysaccharide at 16 times of MIC incubated for 30 mins in the presence of 12.5 ug/ml Zn2+ by fluorescence based microplate reader analysis relative to control
Staphylococcus aureus [25] = experiment: Antibacterial activity against Methicillin-resistant Staphylococcus aureus N315 assessed as inhibition of bacterial growth incubated for 24 hrs in the presence of 12.5 ug/mL Zn2+ by Muller hinton broth based dilution assay; type: functional
Staphylococcus aureus [26] = experiment: Antibacterial activity against Methicillin-resistant Staphylococcus aureus NCTC10442 assessed as inhibition of bacterial growth by measuring salt resistance incubated for 24 hrs in the presence of 12.5 ug/ml Zn2+ and 100 ug/ml Ca2+ by Muller hinton broth based dilution assay; type: functional
Staphylococcus aureus [27] = experiment: Antibacterial activity against Staphylococcus aureus ATCC 29213 assessed as log reduction in bacterial count at 4 times of MIC incubated for 1 hrs in the presence of 12.5 ug/ml Zn2+ by Muller hinton agar based time kill assay; type: functional
Escherichia coli [28] = experiment: Antibacterial activity against Escherichia coli ATCC 25922 assessed as inhibition of bacterial growth by measuring salt resistance incubated for 24 hrs in the presence of 12.5 ug/ml Zn2+ and 3220 ug/ml Na+ by Muller hinton broth based dilution assay; type: functional
Cell membrane [29] = experiment: Disruption of cell membrane integrity in Staphylococcus aureus ATCC 29213 assessed as increase in fluorescence intensity at 2 times to 8 times of MIC measured for 1 hrs in the presence of 12.5 ug/ml Zn2+ by SYTOX green dye based assay; type: subcellular; conditions: DDE = dose-dependent effect

For `CC(C)=CCn1c2ccccc2c2c(OCC(O)CN(Cc3ccccn3)Cc3ccccn3)cccc21` (centres undefined), the Activity (Lipopolysaccharide (LPS) [1]) was 59.5%, the “log(activity)” value (Staphylococcus aureus [2]) was 4.22 and the Activity (Cell membrane [3]) was “Active”. For the same molecule, the MIC (Staphylococcus aureus [4]) was 1.56 µg/mL, the Activity (Cell membrane [5]) was “Dde” and the Ratio [6] was 2. The MIC (Staphylococcus aureus [7]) was 1.56 µg/mL, the MIC (Acinetobacter baumannii [8]) was 0.78 µg/mL and the MIC (Staphylococcus aureus [9]) was 3.12 µg/mL. The MIC (Acinetobacter baumannii [10]) was 1.56 µg/mL, the MIC (Staphylococcus aureus [11]) was 3.12 µg/mL and the MIC (Acinetobacter baumannii [12]) was 3.12 µg/mL (≈ 6.17 µM). For the same molecule, the Activity [13] was 71.58%, the Activity (Lipopolysaccharide (LPS) [14]) was 83.4% and the HC50 at 1 h [15] was > 200 µg/mL. For the same molecule, the Activity (Lipopolysaccharide (LPS) [16]) was 2.47%, the MIC (Pseudomonas aeruginosa [17]) was 3.12 µg/mL and the MIC (Pseudomonas aeruginosa [18]) was 12.5 µg/mL. The “log(activity)” value (Escherichia coli [19]) was 2.91, the MIC (Staphylococcus aureus [20]) was 0.78 µg/mL and the Activity (Lipopolysaccharide (LPS) [21]) was 39.1%. For the same molecule, the MIC (Staphylococcus aureus [22]) was 1.56 µg/mL, the MIC (Staphylococcus aureus [23]) was 1.56 µg/mL and the Activity (Lipopolysaccharide (LPS) [24]) was 91%. The MIC (Staphylococcus aureus [25]) was 0.78 µg/mL, the MIC (Staphylococcus aureus [26]) was 3.12 µg/mL and the “log(activity)” value (Staphylococcus aureus [27]) was 3.03. The MIC (Escherichia coli [28]) was 3.12 µg/mL and the Activity (Cell membrane [29]) was “Dde”.
